Measurements reported in patent US20210161997A1, “TREATING DISEASES VIA TARGETED MODULATION OF GENE SIGNALING NETWORKS” (Camp4 Therapeutics Corporation, priority 2018, published 2021).
Counter-ions that a name gives are not always drawn.

B1: Anti mullerian hormone: TGF-beta activator (protein, UniProt P03971 452-560, looked up)
Muellerian-inhibiting factor: SAGATAADGPCALRELSVDLRAERSVLIPETYQANNCQGVCGWPQSDRNPRYGNHVVLLLKMQVRGAALARPPCCVPTAYAGKLLISLSEERISAHHVPNMVATECGCR
B2: Wnt3a: FRIZZLED activator (protein, UniProt P56704 19-352, looked up)
Protein Wnt-3a: SYPIWWSLAVGPQYSSLGSQPILCASIPGLVPKQLRFCRNYVEIMPSVAEGIKIGIQECQHQFRGRRWNCTTVHDSLAIFGPVLDKATRESAFVHAIASAGVAFAVTRSCAEGTAAICGCSSRHQGSPGKGWKWGGCSEDIEFGGMVSREFADARENRPDARSAMNRHNNEAGRQAIASHMHLKCKCHGLSGSCEVKTCWWSQPDFRAIGDFLKDKYDSASEMVVEKHRESRGWVETLRPRYTYFKVPTERDLVYYEASPNFCEPNPETGSFGTRDRTCNVSSHGIDGCDLLCCGRGHNARAERRREKCRCVFHWCCYVSCQECTRVYDVHTCK

Tests used:
Type in all cases: cell-based
[1] = system: MECP2 mRNA; experiment: MECP2 mRNA in primary human hepatocytes (donor 1, donor 2); conditions: average fold change; for Human hep donor-1 MECP2 (Avg_FC) 1 uM / Human hep donor-1 MECP2 (Avg_FC) 10 uM: human hepatocytes donor-1; for Human hep donor-1 MECP2 (Avg_FC) 1 uM / Human hep donor-2 MECP2 (Avg_FC) 1 uM: compound 1 uM; for Human hep donor-1 MECP2 (Avg_FC) 10 uM / Human hep donor-2 MECP2 (Avg_FC) 10 uM: compound 10 uM; for Human hep donor-2 MECP2 (Avg_FC) 1 uM / Human hep donor-2 MECP2 (Avg_FC) 10 uM: human hepatocytes donor-2
Procedure: (§1) Human hepatocytes were obtained from two donors from Massachusetts General Hospital, namely MGH54 and MGH63, and one donor from Lonza, namely HUM4111B. Cryopreserved hepatocytes were cultured in plating media for 16 hours, transferred to maintenance media for 4 hours. Cultured on serum-free media for 2 hours, then a compound was added. The hepatocytes were maintained on the serum-free media for 16 hours prior to gene expression analysis. Primary human hepatocytes were stored in the vapor phase of a liquid nitrogen freezer (about −130° C.).
(§2) Human hepatocytes cultured as described above were plated in 24-well format, adding 375,000 cells per well in a volume of 500 ul plating medium. Four hours before treatment, cells were washed with PBS and the medium was changed to either: fresh maintenance medium (complete) or modified maintenance medium.
(§3) Compound stocks were prepared at 1000× final concentration and added in a 2-step dilution to the medium to reduce risk of a compound precipitating out of solution when added to the cells, and to ensure reasonable pipetting volumes. One at a time, each compound was first diluted 10-fold in warm (about 37° C.) modified maintenance medium (initial dilution=ID), mixed by vortexing, and the ID was diluted 100-fold into the cell culture (e.g. 5.1 ul into 1 well of a 24-well plate containing 0.5 mL medium). The plate was mixed by carefully swirling and after all wells were treated and returned to the incubator overnight. If desired, separate plates/wells were treated with vehicle-only controls and/or positive controls. If using multi-well plates, controls were included on each plate. After about 18 hours, cells were harvested for further analysis, e.g., ChIP-seq, RNA-seq, ATAC-seq, etc.
Samples were amplified using Taqman probes from ThermoFisher.

[2] = system: MECP2 mRNA; experiment: MECP2 mRNA in stellate cells; conditions: average fold change; for Stellate MECP2 (Avg_FC) 1 uM: compound 1 uM; for Stellate MECP2 (Avg_FC) 10 uM: compound 10 uM
[3] = system: UGT1A1; experiment: RNA-seq of UGT1A1 expression in compound-treated primary human hepatocytes
Procedure: as §1, §2, §3
This protocol is a modified version of the following protocols: MagMAX mirVana Total RNA Isolation Kit User Guide (Applied Biosystems #MAN0011131 Rev B.0), NEBNext Poly(A) mRNA Magnetic Isolation Module (E7490), and NEBNext Ultra Directional RNA Library Prep Kit for Illumina (E7420) (New England Biosystems #E74901).
The MagMAX mirVana kit instructions (the section titled “Isolate RNA from cells” on pages 14-17) were used for isolation of total RNA from cells in culture. Two hundred μl of Lysis Binding Mix was used per well of the multiwell plate containing adherent cells (usually a 24-well plate).
For mRNA isolation and library prep, the NEBNext Poly(A) mRNA Magnetic Isolation Module and Directional Prep kit was used. RNA isolated from cells above was quantified, and prepared in […] of each sample in 50 μl of nuclease-free water. This protocol may be run in microfuge tubes or in a 96-well plate.
Standard QC were applied (read integrity, mapping statistics, library complexity, fragment bias) to remove unsatisfactory samples. […] Log 2 fold change and significance values were computed using PME count data (with replicates explicitly modeled versus pan-experiment controls), median ratio normalized, using maximum likelihood estimation rather than maximum a posteriori, and disabling the use of Cook's distance cutoff when determining acceptable adjusted p-values. […] RNA-seq signals were also normalized by read depth and visualized using the UCSC browser.
To identify small molecules that modulate target gene expression, primary human hepatocytes were prepared as a monoculture, and at least one small molecule compound was applied to the cells.
RNA-seq was performed to determine the effects of the compounds on the expression of the target genes in hepatocytes. Fold change was calculated by dividing the level of expression in the cell system that had been perturbed by the level of expression in an unperturbed system. Changes in expression having a p-value ≤0.05 were considered significant.
Significance was defined as an FPKM ≥1, a log 2(fold change) ≥0.5, and a q-value of ≤0.05 for all targets except for CPOX.

Molecule | Human hep donor-1 MECP2 (Avg_FC) 1 uM [1] | Human hep donor-1 MECP2 (Avg_FC) 10 uM [1] | Stellate MECP2 (Avg_FC) 1 uM [2] | Stellate MECP2 (Avg_FC) 10 uM [2] | UGT1A1 Fold Change (Log2) [3] [Log2] | further results
C=CCNC1=C2C[C@@H](C)C[C@H](OC)[C@H](O)[C@@H](C)/C=C(\C)[C@H](OC(N)=O)[C@@H](OC)/C=C\C=C(/C)C(=O)NC(=CC1=O)C2=O [17-AAG (Tanespimycin)/KOS-953] | 1.63 | 2.80 | 2.43 | 2.21 | – | –
CCOc1ccn(-c2ccc(F)cc2)c(=O)c1C(=O)Nc1ccc(Oc2ccnc(N)c2Cl)c(F)c1 [BMS 777607] | – | – | 0.97 | 1.92 | – | Human hep donor-2 MECP2 (Avg_FC) 1 uM [1]: 1.35; Human hep donor-2 MECP2 (Avg_FC) 10 uM [1]: 3.04
c1cc(OCCN2CCCCC2)cc(-c2n[nH]c3ccc(-c4nc[nH]n4)cc23)c1 [CC-401 hydrochloride] | 1.84 | 2.03 | 1.92 | 2.69 | – | –
COc1cccc(-c2cc(F)ccc2[C@H]2Cc3nc(N)nc(C)c3C(=O)N2)n1 [HSP-990] | 2.54 | 2.72 | 1.98 | 1.99 | – | Human hep donor-2 MECP2 (Avg_FC) 1 uM [1]: 1.27; Human hep donor-2 MECP2 (Avg_FC) 10 uM [1]: 1.66
CC(C)n1nc(-c2ccc3oc(N)nc3c2)c2c(N)ncnc21 [INK-128] | – | – | 1.33 | 2.42 | – | Human hep donor-2 MECP2 (Avg_FC) 1 uM [1]: 2.16; Human hep donor-2 MECP2 (Avg_FC) 10 uM [1]: 2.52
NC(=O)c1ccc(I)c([N+](=O)[O-])c1 [Iniparib (BSI-201)] | 2.28 | 2.15 | 2.39 | 2.26 | – | –
O=C(O)c1ccccc1C(=O)Nc1ccc(-c2ccccc2)cc1 [Kartogenin] | – | – | – | – | 2.24 | –
CC(=O)c1cccc(-c2cccc(-c3ccn(CCN4CCOCC4)n3)c2)c1 [LRH-1 antagonist] | – | – | – | – | 0.91 | –
CN(C)C[C@@H]1CCn2cc(c3ccccc32)C2=C(C(=O)NC2=O)c2cn(c3ccccc23)CCO1.Cl [LY333531 HCl] | 1.44 | 2.14 | 1.26 | 2.15 | – | –
Cn1cc(-c2ccc(F)c(C(F)(F)F)c2)nc1C1CCN(c2ncnc3[nH]ncc23)CC1 [LY2584702] | – | – | – | – | 0.76 | –
Cc1ccc(F)c(NC(=O)Nc2ccc(-c3cccc4[nH]nc(N)c34)cc2)c1 [Linifanib (ABT-869), Linifanib] | 1.78 | 2.01 | 2.50 | 3.17 | – | –
O=C(O)[C@]1(Cc2cccc(Nc3nccs3)n2)CC[C@@H](Oc2cccc(Cl)c2F)CC1 [MK-5108 (VX-689)] | 2.42 | 2.35 | 2.17 | 2.01 | – | –
Cc1ccc(C(=O)OCc2ccc([C@@H](CN)C(=O)Nc3ccc4cnccc4c3)cc2)c(C)c1 [Netarsudil] | – | – | – | – | 0.85 | –
COc1ccc2[nH]c([S+]([O-])Cc3ncc(C)c(OC)c3C)nc2c1 (centres unmarked) [Omeprazole] | – | – | – | – | 1.09 | –
COc1cc2c(cc1OC)-c1c(OC)c(OC)cc3ccnc(c13)C2=O [Oxoglaucine] | – | – | – | – | 0.83 | –
CNC(=O)c1ccccc1Nc1cc(Nc2ccc(N3CCOCC3)cc2OC)ncc1C(F)(F)F [PND-1186] | – | – | – | – | 0.90 | –
CCc1ccc(CCOc2ccc(CC3SC(=O)NC3=O)cc2)nc1 (centres unmarked) [Pioglitazone HCl] | 2.21 | 2.27 | 1.94 | 1.86 | – | –
CC(C)(C(=O)NCC(F)(F)C(F)(F)F)C(=O)N[C@@H]1C(=O)Nc2ccccc2-c2ccccc21 [RO4929097] | – | – | – | – | 1.06 | –
CNC(=O)c1cc(Oc2ccc(NC(=O)Nc3ccc(Cl)c(C(F)(F)F)c3)c(F)c2)ccn1 [Regorafenib (BAY 73-4506)] | 2.05 | 1.92 | 2.31 | 2.77 | – | –
CCCn1c(=O)c2[nH]c(C34CC5CC(CC3C5)C4)nc2n(CCC)c1=O [Rolofylline (KW-3902), Rolofylline] | – | – | – | – | 0.66 | –
CC(C)[C@H](O)C(=O)N[C@@H](C)C(=O)N[C@@H]1C(=O)N(C)CCc2ccccc21 [Semagacestat] | – | – | – | – | 1.01 | –
CCC(=O)N1CCN(c2ccc(-n3c(=O)ccc4cnc5ccc(-c6cnc7ccccc7c6)cc5c43)cc2C(F)(F)F)CC1 [torin1] | – | – | 1.87 | 3.65 | – | Human hep donor-2 MECP2 (Avg_FC) 1 uM [1]: 1.34; Human hep donor-2 MECP2 (Avg_FC) 10 uM [1]: 1.79
BAM7 | – | – | – | – | 1.66 | –
Pifithrin-a | – | – | – | – | 1.44 | –
meBIO | – | – | – | – | 1.98 | –
B1 | – | – | – | – | 0.59 | –
B2 | – | – | – | – | 0.59 | –
